Reference: ChEMBL document CHEMBL5390254, “Discovery and Optimization of Novel hDHODH Inhibitors for the Treatment of Inflammatory Bowel Disease” (J Med Chem, 2023)
Active and inactive are the calls of the source. The rule behind the calls is not given here.

What was measured:
Mus musculus [1] = experiment: Anti-inflammatory activity against DSS-induced acute ulcerative colitis in C57BL/6 mouse model assessed as decrease in body weight loss at 80 mg/kg, po QD for 6 days (Rvb= -13.4%); format: functional; set-up: scale not given: the % may be the effect or the level left; details: time 6 day
Mus musculus [2] = experiment: Anti-inflammatory activity against DSS-induced acute ulcerative colitis in C57BL/6 mouse model assessed as increase in colon length at 80 mg/kg, po QD for 6 days (Rvb= 5.3cm); format: functional; details: time 6 day
Mus musculus [3] = experiment: Anti-inflammatory activity against DSS-induced acute ulcerative colitis in C57BL/6 mouse model assessed as decrease in IL-6 mRNA expression level in colon at 40 mg/kg, po QD for 6 days by RT-PCR analysis; format: functional, organism-based; details: time 6.0 day
Mus musculus [4] = experiment: Anti-inflammatory activity against DSS-induced acute ulcerative colitis in C57BL/6 mouse model assessed as decrease in IL-1beta mRNA expression level in colon at 40 mg/kg, po QD for 6 days by RT-PCR analysis; format: functional, organism-based; details: time 6.0 day
Mus musculus [5] = experiment: Anti-inflammatory activity against DSS-induced acute ulcerative colitis in C57BL/6 mouse model assessed as decrease in IL-17 production in colon at 40 mg/kg, po QD for 6 days by ELISA; format: functional; details: time 6.0 day
Mus musculus [6] = experiment: Anti-inflammatory activity against DSS-induced acute ulcerative colitis in C57BL/6 mouse model assessed as decrease in colon tissue damage score at 40 mg/kg, po QD for 6 days relative to DSS group; format: functional; set-up: scale not given: the % may be the effect or the level left; details: time 6 day
Mus musculus [7] = experiment: Anti-inflammatory activity against DSS-induced acute ulcerative colitis in C57BL/6 mouse model assessed as decrease in IL-1beta production in colon at 40 mg/kg, po QD for 6 days by ELISA; format: functional; details: time 6.0 day
Mus musculus [8] = experiment: Anti-inflammatory activity against DSS-induced acute ulcerative colitis in C57BL/6 mouse model assessed as decrease in IL-17 mRNA expression level in colon at 40 mg/kg, po QD for 6 days by RT-PCR analysis; format: functional, organism-based; details: time 6.0 day
Mus musculus [9] = experiment: Anti-inflammatory activity against DSS-induced acute ulcerative colitis in C57BL/6 mouse model assessed as decrease in colon length shortening at 40 mg/kg, po QD for 6 days (Rvb= 5.5cm); format: functional; details: time 6 day
Mus musculus [10] = experiment: Anti-inflammatory activity against DSS-induced acute ulcerative colitis in C57BL/6 mouse model assessed as decrease in IL-6 production in colon at 40 mg/kg, po QD for 6 days by ELISA; format: functional; details: time 6.0 day
[11] = 1-octanol/water partition coefficient, logP of the compound at 2 mg by UPLC analysis; format: physicochemical

Structure (SMILES) | Activity (Mus musculus [1]) [%] | Activity (Mus musculus [2]) [cm] | Activity (Mus musculus [3]) | Activity (Mus musculus [4]) | Activity (Mus musculus [5]) | Activity (Mus musculus [6]) [%] | Activity (Mus musculus [7]) | Activity (Mus musculus [8]) | Activity (Mus musculus [9]) [cm] | Activity (Mus musculus [10]) | logP [11]
C[C@@H]1CCN(C(=O)CC#N)C[C@@H]1N(C)c1ncnc2[nH]ccc12 [TOFACITINIB] | -3.9 | 6.7 | Active | Active | Active | 45.45 | Active | Active | 6.3 | Active | –
Nc1nc(-c2cn(Cc3c(F)cccc3F)c3ncccc23)ncc1C1CC1 | – | – | – | – | – | – | – | – | – | – | 5.1
